Reference: ChEMBL document CHEMBL1150590, “Cytotoxic and antifungal triterpene glycosides from the Patagonian sea cucumber Hemoiedema spectabilis” (J Nat Prod, 2002)

Key:
Cladosporium cucumerinum [1] = assay: Growth inhibition of Cladosporium cucumerinum after 2 to 3 days by bioautographic assay; type: functional, organism-based
Artemia salina = assay: Toxicity against Artemia salina; type: organism-based; conditions: in vivo
Cladosporium cucumerinum [2] = assay: Antifungal activity against Cladosporium cucumerinum at 1.5 to 50 ug/spot after 2 to 3 days by bioautographic assay; type: functional

Q: Which results are given for `C=C(C)CCC[C@]1(C)OC(=O)[C@]23CC=C4[C@@H](CC[C@H]5C(C)(C)[C@@H](O[C@@H]6OC[C@@H](O)[C@H](O)[C@H]6O[C@@H]6O[C@H](C)[C@@H](O[C@@H]7O[C@H](CO)[C@@H](O)[C@H](O[C@@H]8O[C@H](CO)[C@@H](O)[C@H](OC)[C@H]8O)[C@H]7O)[C@H](O)[C@H]6O)CC[C@]45C)[C@]2(C)CC(=O)[C@@H]31` [DESULFATED HEMOIEDEMOSIDE A]?
A: Activity (Cladosporium cucumerinum [1]): Dose-dependent effect; LC50 (Artemia salina): 424.5 ppm

Q: `CO[C@@H]1[C@@H](O)[C@H](O[C@@H]2[C@@H](O)[C@H](O[C@H]3[C@H](O)[C@@H](O)[C@H](O[C@H]4[C@H](O[C@H]5CC[C@]6(C)[C@@H]7C[C@H](O)[C@]89C(=O)O[C@@](C)(CCCC(C)C)[C@@]8(O)CC[C@@]9(C)C7=CC[C@H]6C5(C)C)OC[C@@H](OS(=O)(=O)[O-])[C@@H]4O)O[C@@H]3C)O[C@H](COS(=O)(=O)[O-])[C@H]2O)O[C@H](CO)[C@H]1O.[Na+].[Na+]` [PATAGONICOSIDE A] was tested. Which “inhibition zone (IZ)” value (Cladosporium cucumerinum [2]) did it give?
A: Its value is 8 mm.

Q: What does the source list for `C=C(C)CCC[C@]1(C)OC(=O)[C@]23CC=C4[C@@H](CC[C@H]5C(C)(C)[C@@H](O[C@@H]6OC[C@@H](OS(=O)(=O)[O-])[C@H](O)[C@H]6O[C@@H]6O[C@H](C)[C@@H](O[C@@H]7O[C@H](COS(=O)(=O)[O-])[C@@H](O)[C@H](O[C@@H]8O[C@H](CO)[C@@H](O)[C@H](OC)[C@H]8O)[C@H]7O)[C@H](O)[C@H]6O)CC[C@]45C)[C@]2(C)CC(=O)[C@@H]31.[Na+].[Na+]` [HEMOIEDEMOSIDE A]?
A: Activity (Cladosporium cucumerinum [1]): Dose-dependent effect; inhibition zone (IZ) (Cladosporium cucumerinum [2]): 8 mm; LC50 (Artemia salina): 18.7 ppm
